Reference: patent publication US12643910B2, “Substituted pyrazolo[3,4-b]pyridines as ectonucleotide pyrophosphatase/phosphodiesterase 1 (ENPP1) modulators” (SANFORD BURNHAM PREBYS MEDICAL DISCOVERY INSTITUTE, priority 2019, dated 2026)

Legend:
ENPP3 = molecular target: T1, ENPP3 (Homo sapiens, UniProt O14638); test: ENPP3 Km ATP assay; assay type: biochemical; conditions: ATP at Km
T1 sequence (O14638 1-875): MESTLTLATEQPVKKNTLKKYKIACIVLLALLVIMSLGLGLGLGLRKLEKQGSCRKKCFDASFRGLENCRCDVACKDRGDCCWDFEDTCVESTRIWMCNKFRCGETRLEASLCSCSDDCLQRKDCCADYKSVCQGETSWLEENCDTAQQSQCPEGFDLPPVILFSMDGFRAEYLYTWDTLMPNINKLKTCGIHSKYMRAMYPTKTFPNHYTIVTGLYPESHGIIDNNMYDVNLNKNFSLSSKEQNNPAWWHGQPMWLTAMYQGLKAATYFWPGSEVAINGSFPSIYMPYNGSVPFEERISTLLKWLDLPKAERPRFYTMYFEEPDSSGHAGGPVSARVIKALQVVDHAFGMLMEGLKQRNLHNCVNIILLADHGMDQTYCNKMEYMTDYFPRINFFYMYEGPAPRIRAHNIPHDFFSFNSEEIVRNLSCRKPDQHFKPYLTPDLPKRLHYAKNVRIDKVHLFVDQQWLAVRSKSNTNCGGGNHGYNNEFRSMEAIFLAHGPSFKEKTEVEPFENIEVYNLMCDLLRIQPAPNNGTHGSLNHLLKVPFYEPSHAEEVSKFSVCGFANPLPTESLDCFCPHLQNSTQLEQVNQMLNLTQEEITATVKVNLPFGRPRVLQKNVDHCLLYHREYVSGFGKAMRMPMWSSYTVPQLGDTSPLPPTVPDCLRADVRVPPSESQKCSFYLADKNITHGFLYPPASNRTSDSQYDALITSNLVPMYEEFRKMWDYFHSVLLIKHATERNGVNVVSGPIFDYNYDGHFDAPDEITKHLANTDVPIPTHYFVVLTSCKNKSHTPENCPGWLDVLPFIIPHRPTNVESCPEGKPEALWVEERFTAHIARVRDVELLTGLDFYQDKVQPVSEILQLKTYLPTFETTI

human ENPP1 = molecular target: T2, human ENPP1 (Homo sapiens, UniProt P22413); test: ENPP1 assay with ATP substrate (Transcreener AMP2/GMP2 TR-FRET); assay type: biochemical; conditions: 1 hour at room temperature
T2 construct: made in house
T2 sequence (P22413 1-925): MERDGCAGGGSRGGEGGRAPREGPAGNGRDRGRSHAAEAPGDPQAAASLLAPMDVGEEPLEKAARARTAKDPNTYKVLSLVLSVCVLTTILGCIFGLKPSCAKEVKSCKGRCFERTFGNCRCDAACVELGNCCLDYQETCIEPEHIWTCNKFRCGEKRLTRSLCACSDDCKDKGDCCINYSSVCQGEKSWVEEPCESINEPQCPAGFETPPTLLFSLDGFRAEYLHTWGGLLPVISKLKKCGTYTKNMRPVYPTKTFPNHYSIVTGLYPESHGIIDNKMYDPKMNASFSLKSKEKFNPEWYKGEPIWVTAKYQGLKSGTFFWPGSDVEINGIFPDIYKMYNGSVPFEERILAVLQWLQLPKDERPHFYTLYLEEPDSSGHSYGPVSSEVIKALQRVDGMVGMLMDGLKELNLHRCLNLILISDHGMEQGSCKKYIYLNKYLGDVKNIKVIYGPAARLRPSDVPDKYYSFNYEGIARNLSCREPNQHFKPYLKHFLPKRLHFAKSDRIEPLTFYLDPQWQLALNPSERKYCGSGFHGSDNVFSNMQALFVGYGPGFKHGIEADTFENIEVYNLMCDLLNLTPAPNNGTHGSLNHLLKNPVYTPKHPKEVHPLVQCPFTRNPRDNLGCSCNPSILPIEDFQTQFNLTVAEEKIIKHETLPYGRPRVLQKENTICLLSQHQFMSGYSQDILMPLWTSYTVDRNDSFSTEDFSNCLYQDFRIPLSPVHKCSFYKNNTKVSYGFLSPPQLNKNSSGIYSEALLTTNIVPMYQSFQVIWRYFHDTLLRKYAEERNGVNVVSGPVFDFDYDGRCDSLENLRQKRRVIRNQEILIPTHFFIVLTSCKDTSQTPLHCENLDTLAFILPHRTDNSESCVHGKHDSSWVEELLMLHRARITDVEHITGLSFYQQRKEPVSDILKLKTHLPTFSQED
In short: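 Reaction ran 1 h at room temperature in pH 7.5 Tris with MgCl2, TCEP, Tween 20 and 1% DMSO. ATP was added as a 300 nM stock and enzyme as an 8.5 μM stock. After EDTA stop, AMP was read by TR-FRET tracer displacement. Percent inhibition used enzyme/no-enzyme controls; IC50 was fitted with a variable slope.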

SMILES	IC50 (ENPP3)	IC50 (human ENPP1)
Cc1csc2c(N3CCC(NCCOc4ccc(F)cc4)CC3)ncnc12 [Example 3.23, N-(2-(4-Fluorophenoxy)ethyl)-1-(7-methylthieno[3,2-d]pyrimidin-4-yl)piperidin-4-amine]	> 20 µM	> 20 µM
Cc1cc(S(N)(=O)=O)ccc1CNc1nc(-c2ccccn2)nc2scc(-c3ccccc3)c12 [Example 1.15, 3-Methyl-4-(((5-phenyl-2-(pyridin-2-yl)thieno[2,3-d]pyrimidin-4-yl)amino)methyl)-benzenesulfonamide]	0.1 to 1 µM	0.1 to 1 µM
COc1nc(NCc2ccc(S(N)(=O)=O)s2)c2cnn(C)c2n1 [Example 2.95, 5-((6-Methoxy-1-methyl-1H-pyrazolo[3,4-d]pyrimidin-4-yl)aminomethyl)thiophene-2-sulfonamide]	0.1 to 1 µM	0.1 to 1 µM
Cc1cc(S(N)(=O)=O)ccc1CNc1ccnc2c1cnn2C [Example 2.69, 3-Methyl-4-(((1-methyl-1H-pyrazolo[3,4-b]pyridin-4-yl)amino)methyl)-benzenesulfonamide]	1 to 20 µM	0.1 to 1 µM
Cn1ncc2ncnc(NCc3ccc(S(N)(=O)=O)cc3)c21 [Example 2.54, 4-[(1-Methyl-1H-pyrazolo[4,3-d]pyrimidin-7-ylamino)-methyl]-benzenesulfonamide]	1 to 20 µM	< 0.1 µM
Cn1ncc2c(NCc3ccc(S(N)(=O)=O)c(Cl)c3)ncnc21 [Example 2.4, 2-Chloro-4-(((1-methyl-1H-pyrazolo[3,4-d]pyrimidin-4-yl)amino)methyl)-benzenesulfonamide]	1 to 20 µM	0.1 to 1 µM
Cc1noc2ncnc(NCc3ccc(S(N)(=O)=O)cc3)c12 [Example 2.59, 4-(((3-Methylisoxazolo[5,4-d]pyrimidin-4-yl)amino)methyl)benzenesulfonamide]	1 to 20 µM	1 to 20 µM
Fc1ccc(CNc2nc(-c3ccccn3)nc3scc(-c4ccccc4)c23)cc1 [Example 1.4, N-(4-Fluorobenzyl)-5-phenyl-2-(pyridin-2-yl)thieno[2,3-d]pyrimidin-4-amine]	> 20 µM	> 20 µM
CNc1nc(NCc2ccc(S(N)(=O)=O)cc2)c2cnn(C)c2n1 [Example 2.27, 4-(((1-Methyl-6-(methylamino)-1H-pyrazolo[3,4-d]pyrimidin-4-yl)amino)methyl)-benzenesulfonamide]	0.1 to 1 µM	< 0.1 µM
NS(=O)(=O)c1ccc(CNc2nc(NC3CCCCC3)nc3scc(-c4ccccc4)c23)cc1 [Example 1.40, 4-(((2-(Cyclohexylamino)-5-phenylthieno[2,3-d]pyrimidin-4-yl)amino)methyl)-benzenesulfonamide]	1 to 20 µM	0.1 to 1 µM
Cc1csc2c(N3CCC(NCCCc4ccccn4)CC3)ncnc12 [Example 3.3, 1-(7-Methylthieno[3,2-d]pyrimidin-4-yl)-N-(3-(pyridin-2-yl)propyl)piperidin-4-amine]	> 20 µM	0.1 to 1 µM
Cn1ncc2c(N3CCC(NCCCc4ccncc4)CC3)nc(-c3ccccc3)nc21 [Example 2.7, 1-(1-Methyl-6-phenyl-1H-pyrazolo[3,4-d]pyrimidin-4-yl)-N-(3-(pyridin-4-yl)propyl)piperidin-4-amine]	> 20 µM	> 20 µM
Cn1ncc2c(NCc3ccc(S(N)(=O)=O)c(F)c3)ccnc21 [Example 2.67, 2-Fluoro-4-(((1-methyl-1H-pyrazolo[3,4-b]pyridin-4-yl)amino)methyl)benzenesulfonamide]	0.1 to 1 µM	< 0.1 µM
Cc1csc2c(N3CCC(NC(=O)CCc4cccc(F)c4)CC3)ncnc12 [Example 3.39, 3-(3-Fluorophenyl)-N-(1-(7-methylthieno[3,2-d]pyrimidin-4-yl)piperidin-4-yl)propanamide]	> 20 µM	> 20 µM
COc1ccc(CCCNC2CCN(c3ncnc4c(C)csc34)CC2)cc1 [Example 3.32, N-(3-(4-Methoxyphenyl)propyl)-1-(7-methylthieno[3,2-d]pyrimidin-4-yl)piperidin-4-amine]	> 20 µM	0.1 to 1 µM
Cc1csc2c(N3CCC(NCCCc4ccncc4Cl)CC3)ncnc12 [Example 3.13, N-(3-(3-Chloropyridin-4-yl)propyl)-1-(7-methylthieno[3,2-d]pyrimidin-4-yl)piperidin-4-amine]	> 20 µM	0.1 to 1 µM
CN1CCN(c2nc(NCc3ccc(S(N)(=O)=O)cc3)c3c(-c4ccccc4)csc3n2)CC1 [Example 1.25, 4-(((2-(4-Methylpiperazin-1-yl)-5-phenylthieno[2,3-d]pyrimidin-4-yl)amino)methyl)-benzenesulfonamide]	< 0.1 µM	< 0.1 µM
CN1CCN(c2nc(N3CCC(NCCCc4ccncc4)CC3)c3cnn(C)c3n2)CC1 [Example 2.6, 1-(1-Methyl-6-(4-methylpiperazin-1-yl)-1H-pyrazolo[3,4-d]pyrimidin-4-yl)-N-(3-(pyridin-4-yl)propyl)piperidin-4-amine]	> 20 µM	> 20 µM
Cn1nc(Br)c2c(NCc3ccc(S(N)(=O)=O)cc3)nc(N3CCCCC3)nc21 [Example 2.131, 4-((3-Bromo-1-methyl-6-piperidino-1H-pyrazolo[3,4-d]pyrimidin-4-yl)aminomethyl)benzenesulfonamide]	< 0.1 µM	1 to 20 µM
CCSc1nc(NCc2ccc(S(N)(=O)=O)cc2)c2cnn(C)c2n1 [Example 2.108, 4-((6-(Ethylsulfanyl)-1-methyl-1H-pyrazolo[3,4-d]pyrimidin-4-yl)aminomethyl)-benzenesulfonamide]	< 0.1 µM	< 0.1 µM
CCOc1nc(NCc2ccc(S(N)(=O)=O)cc2)c2cnn(C)c2n1 [Example 2.93, 4-((6-Ethoxy-1-methyl-1H-pyrazolo[3,4-d]pyrimidin-4-yl)aminomethyl)-benzenesulfonamide]	0.1 to 1 µM	< 0.1 µM
CCn1ncc2c(NCc3ccc(S(N)(=O)=O)cc3)nc(OCCC(C)C)nc21 [Example 2.102, 4-((1-Ethyl-6-(3-methylbutoxy)-1H-pyrazolo[3,4-d]pyrimidin-4-yl)aminomethyl)-benzenesulfonamide]	0.1 to 1 µM	< 0.1 µM
Cc1nsc2c(N3CCC(NCCCc4ccc(F)cc4)CC3)ncnc12 [Example 3.59, N-(3-(4-Fluorophenyl)propyl)-1-(3-methylisothiazolo[4,5-d]pyrimidin-7-yl)piperidin-4-amine]	> 20 µM	1 to 20 µM
Cc1csc2c(N3CCC(NCCCc4cccc(F)c4)CC3)ncnc12 [Example 3.41, N-(3-(3-Fluorophenyl)propyl)-1-(7-methylthieno[3,2-d]pyrimidin-4-yl)piperidin-4-amine]	> 20 µM	0.1 to 1 µM
CSc1nc(NCc2ccc(S(N)(=O)=O)cc2)c2cnn(C)c2n1 [Example 2.107, 4-((1-Methyl-6-(methylsulfanyl)-1H-pyrazolo[3,4-d]pyrimidin-4-yl)aminomethyl)-benzenesulfonamide]	< 0.1 µM	< 0.1 µM
Cn1ncc2c(N3CCC(NCCCc4ccncc4)CC3)ncnc21 [Example 2.5, 1-(1-Methyl-1H-pyrazolo[3,4-d]pyrimidin-4-yl)-N-(3-(pyridin-4-yl)propyl)piperidin-4-amine]	> 20 µM	> 20 µM
